{"source": "patent US7279338B2", "about": "“Methods for determining cellular response to stimuli” (Cargill, Incorporated, priority 2004, dated 2007)", "key": {"[1]": {"system": "taste bud cells in porcine taste tissue", "experiment": "Multiphoton fluorescence intensity imaging of stimulated porcine taste tissue in flowing perfusing medium", "format": "cell-based", "procedure": "Two papillae in close proximity to one another were loaded in this manner. The papillae were extracted from the larger piece of tissue and placed into the open chamber configuration (this work was done prior to that using the closed, gasketed chamber). The tissue was repeatedly stimulated with 20 mmol/L citric acid using the 1.0 mL/min flow rate and 1.0 mL sample loop, switched to the load position as time series data acquisition began. The imaging parameters were as follows: 400 Hz galvo scan rate, 2× zoom with 63× objective, 256×256 pixel image format, 2× frame average, 810 nm laser at 36%, and 0.5 Hz frame scan rate. The tissue was received at approximately 8:00 am, transported in oxygenated Tyrode's solution to the lab, loaded at approximately 10:00 am and imaged at approximately 11:00 am. Cells from two adjacent taste buds within the second papilla were imaged in xyzt mode at a depth of approximately 35 micrometers. […] The time series data were processed using the alignment tools development to address the tissue movement issues. […] However, the movement in this case was primarily in the x-y plane, and therefore the alignment algorithm provided sufficient alignment. […] However, the relative difference in emission and differences in slope due to photobleaching makes comparison between cells difficult. […]"}, "[2]": {"system": "taste cells in porcine taste tissue (fungiform papilla taste bud)", "experiment": "Multiphoton fluorescence lifetime imaging (MP-FLIM) of stimulated porcine taste tissue in static bath", "format": "cell-based", "conditions": "for response of taste cells to stimuli (calcium green lifetime imaging): bulk addition: 0.5 mL of 25-micromolar cycloheximide, then 0.5 mL of 1-millimolar sucralose, in deionized water", "excerpt": "Fresh porcine taste tissue was procured in the prescribed manner from a local slaughterhouse and transported, after removal from the tongue, in chilled, oxygenated Tyrode's solution to the preparation laboratory. The tissue was affixed to a coated Petri dish and taste buds iontophoretically loaded (1.0 microampere) with calcium green dextran dye (1 mmol/L in DI water) via a drawn capillary pipette. Several taste pores were loaded on a papilla, with several papillae loaded overall, providing 3-5 taste buds loaded with dye. The tissue was mounted in a chamber and placed onto the microscope stage. The sample was imaged using the 63× water-dipping objective, 60% laser power at 810-nm excitation, in xzy mode (256×256 pixels) in order to image the taste bud and surface features at once in a longitudinal section. The photomultiplier tube gain on the FLIM system was set to 85% and the initial Leica settings (non-optimized) were used to capture FLIM images of the tissue over a 10-15 minute time course.\nThe same field of view was then imaged using the multiphoton lifetime imaging capability of the instrument. The optical conditions for lifetime mage collection are identical to intensity-based imaging, except that in photon counting mode the collection requires 30 seconds in this case for adequate signal to noise. The lifetimes were calculated by a double exponential fit of the decay curves and color-coded based on average lifetime per pixel. Red values are shorter lifetimes in this case. […] The shortest lifetime evident in this image is associated with the apical end of the taste cell directly below the pore. At rest, the average lifetime for all of the cells in the field of view is 1,634 picoseconds. The short lifetime component of the fit was set to 350 picoseconds, an estimate of the short lifetime component based on initial calcium calibrations in order to facilitate rapid fitting of the data for comparison.\nThe taste bud was exposed to several gross stimuli: cycloheximide and sucralose in deionized water. The purpose of this stimulus experiment was to determine if the bud would remain viable during the time course of a stimulus and if possible, to determine the presence of a gross response via lifetime imaging. The stimulants were applied via bulk addition to the chamber holding the tissue: 0.5 mL of 25-micromolar cycloheximide was first added after removal of 1 mL buffer; 0.5 mL of 1 -millimolar sucralose added after the cycloheximide stimulus and removal of additional 1 mL buffer. The MP-FLIM image data were collected at approximately 1-minute intervals using the same optical and exposure conditions used to generate the resting image described above. […]"}, "[3]": {"experiment": "Calcium green-1 dextran dissociation constant from MP-FLIM lifetime and intensity data in CaEGTA calcium buffers", "format": "binding", "method": "Calcium buffers (CaEGTA) and calcium green-1 dextran (CaGD) were purchased from Molecular Probes. The calcium buffers provide free Ca^+2 over a nanomolar to millimolar concentration range in a matrix closely matching the pH and ionic strength of the cytosol. The lifetimes and relative contributions of these bound and unbound decays are determined by fitting multi-exponential curves to the instrumental data. Buffer kit #2 (0-39 micromoles/L free Ca^+2) was used in this work to determine the response of calcium green dextran to low calcium concentrations. Initial work was done with Buffer kit #3, but the range of free Ca^+2 (0-1000 micromoles/L) was too high for the dye chosen. Calcium ion concentration is approximately 0.1 micromoles/L in resting cell's cytoplasm and in the increases to the micromolar range upon stimulus (Pollard, 2002).\nSamples were analyzed in a random order during each experiment using the MP-FLIM system and a quartz solution cell. […] Each sample produced two full fields of view (256×256) where each image pixel contains a decay curve. As the calcium green dextran was present in bound and unbound forms, double exponential fits were performed using SPCImage (version 2.7.7238.0). The double exponential decays were calculated for each sample on the entire field of view, generating 65,536 values for each field of view. The average decay for each field of view was calculated as a sum of the per pixel lifetime values weighted by the amplitudes (contributions) of each lifetime to each pixel. Table 1 details the results for the calculation of the unbound dye fluorescence lifetime. The average τ1 from the measurements is 405.6 ps, with a sample standard variance of approximately 1.0 ps.\nThe balance of the calcium buffer data were analyzed using the SPCImage software under similar conditions as given in Table 1, with the exception that the short lifetime was fixed to 405.6 ps in the model parameters settings box. In addition, the zero Ca^+2 buffer average lifetimes were recalculated using the fixed short lifetime value. Due to instabilities in the software interface, the short lifetime was designated as τ2 in the fit parameters box. A second order polynomial fit of average lifetime in picoseconds versus calcium concentration in micromoles/L for a calcium concentration range from 0 to 0.602 micromoles/L yields the relationship: τavg=−3047 c^2+4472 c+601, R^2=0.9976; RMSE=30.9 ps.\nA significant reported advantage of fluorescence lifetime measurements is that the dependence of fluorescence lifetime on calcium concentration is insensitive to dye concentration provided the dye itself is at low enough concentrations so as to not buffer the calcium ion in the cell or the cuvette. In order to test this property in the calcium green dextran system, additional sample sets were made up with 2.5-micromoles/L dye and 9.9-micromoles/L dye in the buffer solutions. The variations in lifetime data and intensity data with dye concentrations are given in FIG. 2 and FIG. 3, respectively. The lifetime data appears to be invariant with dye concentration, where the average standard deviation (variation in lifetime with dye concentration at each calcium concentration) for the lifetime data on the order or 25 ps. In contrast, the intensity variability is significant, where the intensity of the fluorescence is dependent upon the calcium concentration and the dye concentration.\nFinally, calcium green-1 dissociation constants were calculated for the various dye concentrations using lifetime and intensity-based data sets."}, "[4]": {"conditions": "read-out: KD for calcium; cited from earlier work"}}, "note": "Where two headings read alike, the source gives them in different places."}
{"compound": "O=C(O)CC(O)(CC(=O)O)C(=O)O", "note": "[citric acid]", "values": [{"measurement": "baseline corrected average fluorescence intensity per cell (intracellular calcium response)", "setting": "[1]; 20 mmol/L citric acid, 1.0 mL/min flow, 1.0 mL sample loop, seven cells in field of view", "result": "strong response to the stimulus in cell 1 with lower magnitude responses in other cells"}, {"measurement": "response to successive stimuli", "setting": "[1]; three successive 20 mmol/L citric acid stimuli, 5 minutes artificial saliva between stimuli", "result": "decrease in response to subsequent stimulus"}]}
{"compound": "C[C@@H]1C[C@@H]([C@H](O)CC2CC(=O)NC(=O)C2)C(=O)[C@@H](C)C1", "note": "[cycloheximide]", "values": [{"measurement": "response of taste cells to stimuli (calcium green lifetime imaging)", "setting": "[2]", "result": "taste cells responded to the stimuli"}]}
{"compound": "OC[C@H]1O[C@H](O[C@]2(CCl)O[C@H](CCl)[C@@H](O)[C@@H]2O)[C@H](O)[C@@H](O)[C@H]1Cl", "note": "[sucralose]", "values": [{"measurement": "calcium concentration surrounding the taste cells during stimulus", "setting": "[2]; 0.5 mL of 1-millimolar sucralose, bulk addition", "result": "decreased"}, {"measurement": "change of calcium green lifetime around the taste cells on stimulus", "setting": "[2]; 0.5 mL of 1-millimolar sucralose, bulk addition after cycloheximide stimulus, images at about 1-minute intervals", "result": "significant shortening of the calcium green lifetime around the taste cells"}, {"measurement": "response of taste cells to stimuli (calcium green lifetime imaging)", "setting": "[2]", "result": "taste cells responded to the stimuli"}]}
{"compound": "calcium green-1 dextran", "values": [{"measurement": "Kd", "setting": "[3]; dye concentration 2.5 micromoles/L, read-out: Kd, Intensity Data", "result": 482, "unit": "nM"}, {"measurement": "Kd", "setting": "[3]; dye concentration 2.5 micromoles/L, read-out: Kd, Lifetime Data", "result": 342, "unit": "nM"}, {"measurement": "Kd", "setting": "[3]; dye concentration 5.0 micromoles/L, read-out: Kd, Intensity Data", "result": 520, "unit": "nM"}, {"measurement": "Kd", "setting": "[3]; dye concentration 5.0 micromoles/L, read-out: Kd, Lifetime Data", "result": 329, "unit": "nM"}, {"measurement": "Kd", "setting": "[3]; dye concentration 9.9 micromoles/L, read-out: Kd, Intensity Data", "result": 382, "unit": "nM"}, {"measurement": "Kd", "setting": "[3]; dye concentration 9.9 micromoles/L, read-out: Kd, Lifetime Data", "result": 290, "unit": "nM"}, {"measurement": "Kd", "setting": "[4]", "result": "~540", "unit": "nM"}]}
